We go through 9 molecules from patent publication US11492335B2, “Aryl or heteroaryl triazolone derivatives or salts thereof, or pharmaceutical compositions comprising the same” (YUHAN CORPORATION, priority 2018, dated 2022).

By IC50 is commonly meant the midpoint of a concentration-inhibition curve.

Structures can show the parent of a compound that is named as a salt. Where two headings read alike, the source gives them in different places.

Holding throughout (assay type): biochemical
One assay addresses T1, recombinant human VAP-1 (Homo sapiens, UniProt Q16853).
T1 construct: purchased R&D systems
T1 sequence (Q16853 1-763): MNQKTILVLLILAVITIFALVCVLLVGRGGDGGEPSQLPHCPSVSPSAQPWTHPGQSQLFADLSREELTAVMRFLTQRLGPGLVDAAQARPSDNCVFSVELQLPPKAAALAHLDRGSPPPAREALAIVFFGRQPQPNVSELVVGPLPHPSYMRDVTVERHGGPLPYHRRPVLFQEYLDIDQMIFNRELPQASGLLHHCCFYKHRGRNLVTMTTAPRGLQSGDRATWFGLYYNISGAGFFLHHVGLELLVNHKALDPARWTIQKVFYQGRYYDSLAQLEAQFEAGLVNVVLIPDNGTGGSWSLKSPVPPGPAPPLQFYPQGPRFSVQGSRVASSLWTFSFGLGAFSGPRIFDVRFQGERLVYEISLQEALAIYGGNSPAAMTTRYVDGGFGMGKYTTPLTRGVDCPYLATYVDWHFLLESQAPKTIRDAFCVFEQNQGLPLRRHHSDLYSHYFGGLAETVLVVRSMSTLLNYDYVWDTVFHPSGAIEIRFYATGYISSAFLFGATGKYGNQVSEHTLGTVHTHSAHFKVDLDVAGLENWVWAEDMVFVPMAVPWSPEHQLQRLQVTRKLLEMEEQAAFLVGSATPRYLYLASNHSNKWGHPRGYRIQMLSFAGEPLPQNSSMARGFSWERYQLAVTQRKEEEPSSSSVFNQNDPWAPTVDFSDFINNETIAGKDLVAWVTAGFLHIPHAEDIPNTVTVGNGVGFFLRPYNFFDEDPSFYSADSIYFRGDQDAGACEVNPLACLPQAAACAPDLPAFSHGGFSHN
Description: Activity on recombinant human VAP-1, Amplex Red HRP-coupled hydrogen peroxide assay, benzylamine substrate. The settings on record: recombinant human VAP-1, benzylamine substrate, read-out: Inhibitory Activity (IC50, nM) human VAP-1. An outline of the steps:
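Enzyme in 50 mM sodium phosphate (pH 7.4) is exposed to test compound for 30 min at 37 °C. Benzylamine (1 mM) with HRP and Amplex Red then starts the reaction, and the fluorescence rate, relative to a DMSO-only control, gives IC50.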

Assay [1] addresses T2, recombinant human MAO-A (monoamine oxidase-A) (Homo sapiens, UniProt P21397).
T2 construct: purchased Sigma-Aldrich
T2 sequence (P21397 1-527): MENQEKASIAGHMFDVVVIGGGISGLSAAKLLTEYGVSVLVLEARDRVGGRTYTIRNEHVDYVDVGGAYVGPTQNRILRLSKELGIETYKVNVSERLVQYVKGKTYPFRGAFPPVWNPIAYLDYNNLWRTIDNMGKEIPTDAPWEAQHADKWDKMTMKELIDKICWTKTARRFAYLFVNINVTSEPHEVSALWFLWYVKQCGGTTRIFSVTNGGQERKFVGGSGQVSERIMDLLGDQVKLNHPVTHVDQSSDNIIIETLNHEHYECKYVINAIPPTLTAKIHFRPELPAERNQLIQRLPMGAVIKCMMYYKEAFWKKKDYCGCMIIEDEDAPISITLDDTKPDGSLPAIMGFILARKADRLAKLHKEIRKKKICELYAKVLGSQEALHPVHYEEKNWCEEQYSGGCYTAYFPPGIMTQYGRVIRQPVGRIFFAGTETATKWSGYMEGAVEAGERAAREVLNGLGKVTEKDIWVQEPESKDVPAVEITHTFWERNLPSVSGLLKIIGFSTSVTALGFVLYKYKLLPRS
Description: Activity on recombinant human MAO-A, Amplex Red method, 0.5 mM tyramine substrate. The settings on record: read-out: Inhibitory Activity (IC50, nM) MAO-A. An outline of the steps: (§1)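 Enzyme in pH 7.4 phosphate buffer; 30 min, 37° C with compound (DMSO <1%); start with 200 uM Amplex Red + 1 U/mL HRP + tyramine 0.5 mM (MAO-A) or benzylamine 1 mM (MAO-B); kinetic read ex 544/em 590, 1-2 h; % rate decrease vs DMSO control → IC50, 4-parameter fit.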

Assay [2] has as its target T3, recombinant human MAO-B (monoamine oxidase-B) (Homo sapiens, UniProt P27338).
T3 construct: purchased Sigma-Aldrich
T3 sequence (P27338 1-520): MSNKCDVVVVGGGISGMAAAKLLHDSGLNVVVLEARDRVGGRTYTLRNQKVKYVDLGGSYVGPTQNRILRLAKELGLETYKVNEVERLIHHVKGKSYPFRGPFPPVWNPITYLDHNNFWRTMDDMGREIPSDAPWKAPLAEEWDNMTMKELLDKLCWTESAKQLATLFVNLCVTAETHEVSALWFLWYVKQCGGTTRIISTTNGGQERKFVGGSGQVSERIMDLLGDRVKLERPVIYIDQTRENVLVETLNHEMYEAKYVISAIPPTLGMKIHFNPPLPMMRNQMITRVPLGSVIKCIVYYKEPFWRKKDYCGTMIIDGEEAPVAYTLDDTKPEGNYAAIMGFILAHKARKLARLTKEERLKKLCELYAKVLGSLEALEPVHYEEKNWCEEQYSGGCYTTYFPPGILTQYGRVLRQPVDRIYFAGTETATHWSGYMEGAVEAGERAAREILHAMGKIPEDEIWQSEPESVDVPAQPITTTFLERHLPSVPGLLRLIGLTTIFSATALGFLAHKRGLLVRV
Briefly: Activity on recombinant human MAO-B, Amplex Red method, 1 mM benzylamine substrate. The note with it: read-out: Inhibitory Activity (IC50, nM) MAO-B. The essentials:
as §1

Assay [3] deals with T4, recombinant human DAO (diamine oxidase) (Homo sapiens, UniProt P19801).
T4 construct: purchased R&D systems
T4 sequence (P19801 20-751): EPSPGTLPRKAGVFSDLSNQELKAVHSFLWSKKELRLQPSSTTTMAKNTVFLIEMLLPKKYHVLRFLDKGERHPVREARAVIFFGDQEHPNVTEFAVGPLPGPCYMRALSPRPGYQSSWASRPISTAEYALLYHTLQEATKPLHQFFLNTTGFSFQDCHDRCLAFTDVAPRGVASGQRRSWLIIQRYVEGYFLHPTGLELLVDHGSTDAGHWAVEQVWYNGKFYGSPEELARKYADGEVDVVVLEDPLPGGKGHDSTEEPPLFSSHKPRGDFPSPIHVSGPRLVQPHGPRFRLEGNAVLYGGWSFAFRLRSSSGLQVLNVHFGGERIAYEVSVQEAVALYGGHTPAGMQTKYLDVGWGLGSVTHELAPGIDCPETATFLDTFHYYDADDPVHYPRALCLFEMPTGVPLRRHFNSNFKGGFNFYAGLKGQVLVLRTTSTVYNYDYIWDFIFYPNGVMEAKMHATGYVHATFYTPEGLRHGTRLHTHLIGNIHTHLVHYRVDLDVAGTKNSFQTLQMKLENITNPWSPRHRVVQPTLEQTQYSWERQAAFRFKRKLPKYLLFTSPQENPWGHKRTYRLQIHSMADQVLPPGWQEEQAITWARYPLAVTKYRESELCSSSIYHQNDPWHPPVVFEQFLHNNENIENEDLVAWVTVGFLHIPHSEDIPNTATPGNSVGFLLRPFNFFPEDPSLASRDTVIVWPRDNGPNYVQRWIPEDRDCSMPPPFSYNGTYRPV
Description: Activity on recombinant human DAO, Amplex Red method, 1 mM putrescine substrate. The note with it: recombinant human DAO, read-out: Inhibitory Activity (IC50, nM) DAO. An outline of the steps: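 Inhibition of recombinant human DAO (diamine oxidase, R&D systems) was assessed with the Amplex Red Hydrogen Peroxide Assay Kit. Hydrogen peroxide produced from 1 mM putrescine was detected through an HRP-coupled reaction that converts Amplex Red into fluorescent resorufin, read at 544 nm excitation and 590 nm emission. IC50 values came from four-parameter logistic fits in GraphPad Prism.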

Where [4] appears, read: 1 mM putrescine, * = between 10 and 100 nM, ** = between 300 and 1000 nM.

Regarding `NC/C(=C\F)Cn1ncn(-c2cc(/C=C/c3ccccc3)ccn2)c1=O` [Example 236, 2-[(2E)-2-(aminomethyl)-3-fluoroprop-2-en-1-yl]-4-{4-[(E)-2-phenylethenyl]pyridin-2-yl}-2,4-dihydro-3H-1,2,4-triazol-3-one hydrochloride], the IC50 is 0.8 nM on recombinant human VAP-1, more than 10000 nM in assay [1] (0.5 mM tyramine substrate), 16 nM in assay [2] (1 mM benzylamine substrate) and 6.4 nM in assay [3] (1 mM putrescine substrate).
For the molecule `CC(=O)c1ccc(-c2cnc(-n3cnn(C/C(=C/F)CN)c3=O)c(C)c2)s1` [Example 132, 4-[5-(5-acetylthiophen-2-yl)-3-methylpyridin-2-yl]-2-[(2E)-2-(aminomethyl)-3-fluoroprop-2-en-1-yl]-2,4-dihydro-3H-1,2,4-triazol-3-one hydrochloride], the IC50 on recombinant human VAP-1 (30 min preincubation at 37° C.) stood at 0.54 nM; in assay [1] (0.5 mM tyramine), 62000 nM; in assay [2] (1 mM benzylamine) it was 850 nM; in assay [3] (setting [4]) it was 280 nM.
Regarding `NC/C(=C\F)Cn1ncn(-c2cccc(-c3ccc4c(c3)NC(=O)CO4)n2)c1=O` [Example 199, hydrochloride], the IC50 at recombinant human VAP-1 is 4.6 nM; in assay [1] (0.5 mM tyramine substrate) it was more than 100000 nM; in assay [2] (1 mM benzylamine substrate), 1900 nM; in assay [3] (1 mM putrescine substrate, bound qualified by footnote * / **) it was less than 100 nM.
Regarding `NC/C(=C\F)Cn1ncn(-c2cc(-c3ccc(-c4ccon4)cc3)ccn2)c1=O` [Example 167, 2-[(2E)-2-(aminomethyl)-3-fluoroprop-2-en-1-yl]-4-{4-[4-(1,2-oxazol-3-yl)phenyl]pyridin-2-yl}-2,4-dihydro-3H-1,2,4-triazol-3-one], the IC50 is 1 nM at recombinant human VAP-1, more than 100000 nM in assay [1] (0.5 mM tyramine substrate), more than 10000 nM in assay [2] (1 mM benzylamine substrate) and less than 30 nM in assay [3] (1 mM putrescine substrate).
In the case of `NC/C(=C\F)Cn1ncn(-c2cccc(-c3ccc4nonc4c3)c2)c1=O` [Example 96, 2-[(2E)-2-(aminomethyl)-3-fluoroprop-2-en-1-yl]-4-[3-(2,1,3-benzooxadiazol-5-yl)phenyl]-2,4-dihydro-3H-1,2,4-triazol-3-one hydrochloride], the half-inhibitory concentration (IC50) on recombinant human VAP-1 (30 min preincubation at 37° C.) was 0.51 nM; in assay [1] (0.5 mM tyramine), more than 100000 nM; in assay [2] (1 mM benzylamine) it was 390 nM; in assay [3] (setting [4]), less than 100 nM.
For `Cc1cc(-c2ccc(C(F)(F)F)nc2)cnc1-n1cnn(C/C(=C/F)CN)c1=O` [Example 148, 2-[(2E)-2-(aminomethyl)-3-fluoroprop-2-en-1-yl]-4-[5-methyl-6′-(trifluoromethyl)-3,3′-bipyridin-6-yl]-2,4-dihydro-3H-1,2,4-triazol-3-one hydrochloride] the same measures were 0.4 nM, 160000 nM, more than 10000 nM and 35 nM.
Turning to `NC/C(=C\F)Cn1ncn(-c2ncc(Br)s2)c1=O` [Example 41, 2-[(2E)-2-(aminomethyl)-3-fluoroprop-2-en-1-yl]-4-(5-bromo-1,3-thiazol-2-yl)-2,4-dihydro-3H-1,2,4-triazol-3-one hydrochloride], the IC50 worked out at 0.6 nM at recombinant human VAP-1 (30 min preincubation at 37° C.), 780 nM in assay [1] (0.5 mM tyramine), 174 nM in assay [2] (1 mM benzylamine) and 17 nM in assay [3] (setting [4]).
In the case of `Cc1cc(-c2cccc(-c3ncon3)c2)cnc1-n1cnn(C/C(=C/F)CN)c1=O` [Example 140, 2-[(2E)-2-(aminomethyl)-3-fluoroprop-2-en-1-yl]-4-{3-methyl-5-[3-(1,2,4-oxadiazol-3-yl)phenyl]pyridin-2-yl}-2,4-dihydro-3H-1,2,4-triazol-3-one], the IC50 on recombinant human VAP-1 (30 min preincubation at 37° C.) was found to be 0.79 nM; in assay [1] (0.5 mM tyramine), 3400 nM; in assay [2] (1 mM benzylamine), 3100 nM; in assay [3] (setting [4]) it was 13000 nM.
On to `NC/C(=C/F)Cn1ncn(-c2c(F)cc(Br)cc2F)c1=O` [Example 21, 2-[(2Z)-2-(aminomethyl)-3-fluoroprop-2-en-1-yl]-4-(4-bromo-2,6-difluorophenyl)-2,4-dihydro-3H-1,2,4-triazol-3-one hydrochloride], for which the IC50 was found to be 7.3 nM on recombinant human VAP-1 (30 min preincubation at 37° C.), 400 nM in assay [1] (0.5 mM tyramine), 25 nM in assay [2] (1 mM benzylamine) and 333 nM in assay [3] (setting [4]).
